Tests used:
Test in all cases: Checkerboard assay, DIHQ with metronidazole or vancomycin
Assay type in all cases: cell-based, Clostridium difficile
[1] = test system: C. difficile P30
Experimental: (§1) Interactions between diiodohydroxyquinoline and the anticlostridial drugs (metronidazole and vancomycin) against Clostridium difficile clinical isolates. […] The fractional inhibitory concentration index (ΣFIC) was calculated for each interaction. Interactions where the ΣFIC index was ≤0.5 were categorized as synergistic (SYN).

[2] = test system: C. difficile P19
Experimental: as §1

[3] = test system: C. difficile I6
Experimental: as §1

[4] = test system: C. difficile P11
Experimental: as §1

[5] = test system: C. difficile ATCC 1801
Experimental: as §1

[6] = DIHQ with metronidazole, C. difficile P30
[7] = DIHQ with vancomycin, C. difficile P30
[8] = DIHQ with metronidazole, C. difficile P19
[9] = DIHQ with vancomycin, C. difficile P19
[10] = DIHQ with metronidazole, C. difficile I6
[11] = DIHQ with vancomycin, C. difficile I6
[12] = DIHQ with metronidazole, C. difficile P11
[13] = DIHQ with vancomycin, C. difficile P11
[14] = DIHQ with metronidazole, C. difficile ATCC 1801

SMILES: Oc1c(I)cc(I)c2cccnc12 [DIHQ, 5,7-diiodoquinolin-8-ol]
- MIC of DIHQ combined with metronidazole ([1]; C. difficile P30): 0.06 µg/mL
- MIC of DIHQ combined with vancomycin ([1]; C. difficile P30): 0.125 µg/mL
- MIC alone ([1]; C. difficile P30, Table 4): 1 µg/mL
- MIC ([1]; Clostridioides difficile, C. difficile P30, Table 3, read-out: MIC alone): 1 µg/mL
- Interpretation [1, 6]: SYN (ΣFIC index ≤0.5 is considered synergistic (SYN))
- ΣFIC Index [1, 6]: 0.185
- Interpretation [1, 7]: SYN (ΣFIC index ≤0.5 is considered synergistic (SYN))
- ΣFIC Index [1, 7]: 0.25
- MIC of DIHQ combined with metronidazole ([2]; C. difficile P19): 0.06 µg/mL
- MIC of DIHQ combined with vancomycin ([2]; C. difficile P19): 0.125 µg/mL
- MIC alone ([2]; C. difficile P19, Table 4): 0.5 µg/mL
- MIC ([2]; Clostridioides difficile, C. difficile P19, Table 3, read-out: MIC alone): 0.5 µg/mL
- Interpretation [2, 8]: SYN (ΣFIC index ≤0.5 is considered synergistic (SYN))
- ΣFIC Index [2, 8]: 0.24
- Interpretation [2, 9]: SYN (ΣFIC index ≤0.5 is considered synergistic (SYN))
- ΣFIC Index [2, 9]: 0.375
- MIC of DIHQ combined with metronidazole ([3]; C. difficile I6): 0.125 µg/mL
- MIC of DIHQ combined with vancomycin ([3]; C. difficile I6): 0.5 µg/mL
- MIC alone ([3]; C. difficile I6, Table 4): 2 µg/mL
- MIC ([3]; Clostridioides difficile, C. difficile I6, Table 3, read-out: MIC alone): 2 µg/mL
- Interpretation [3, 10]: SYN (ΣFIC index ≤0.5 is considered synergistic (SYN))
- ΣFIC Index [3, 10]: 0.188
- Interpretation [3, 11]: SYN (ΣFIC index ≤0.5 is considered synergistic (SYN))
- ΣFIC Index [3, 11]: 0.375
- MIC of DIHQ combined with metronidazole ([4]; C. difficile P11): 0.125 µg/mL
- MIC of DIHQ combined with vancomycin ([4]; C. difficile P11): 0.5 µg/mL
- MIC alone ([4]; C. difficile P11, Table 4): 0.5 µg/mL
- MIC ([4]; Clostridioides difficile, C. difficile P11, Table 3, read-out: MIC alone): 0.5 µg/mL
- Interpretation [4, 12]: SYN (ΣFIC index ≤0.5 is considered synergistic (SYN))
- ΣFIC Index [4, 12]: 0.37
- Interpretation [4, 13]: ADD (ΣFIC index >0.5 − 1.25 is considered additive (ADD))
- ΣFIC Index [4, 13]: 1.125
- MIC of DIHQ combined with metronidazole ([5]; C. difficile ATCC 1801): 1 µg/mL
- MIC of DIHQ combined with vancomycin ([5]; C. difficile ATCC 1801): 2 µg/mL
- MIC alone ([5]; C. difficile ATCC 1801, Table 4): 4 µg/mL
- MIC ([5]; Clostridioides difficile, ATCC1801, C. difficile ATCC 1801, Table 3, read-out: MIC alone): 4 µg/mL
- Interpretation [5, 14]: SYN (ΣFIC index ≤0.5 is considered synergistic (SYN))
- ΣFIC Index [5, 14]: 0.37

— US11806342B2, “Diiodohydroxyquinoline for the treatment of clostridium difficile infection” (Purdue Research Foundation, priority 2019, dated 2023)
